This is an account of results in article PMC7273600 (The Journal of Veterinary Medical Science, 2020).

As usually defined, the Km is the substrate concentration at which the rate is half of its maximum.

One data set deals with CYP. The note with it: hen treated with tribufos; cited from earlier work.
For data set [1], the system named is CYP1A. Put plainly: Inhibition of ethoxyresorufin O-deethylation. It counts as in vitro ADME. Conditions: rat hepatic microsomes; for Concentration that evidently inhibited EROD: Fig. 2.
The next data set has as its system CYP1A1/2. The note with it: read-out: IC50 for CYP1A1/2; human microsomes; cited from earlier work.
A further data set relates to CYP2B6. Conditions: read-out: IC50 for CYP2B6; human microsomes; cited from earlier work.
The next data set has as its system CYP2C8. Conditions: read-out: IC50 for CYP2C8; human microsomes; cited from earlier work.
The next data set concerns CYP2C9. The note with it: read-out: IC50 for CYP2C9; human microsomes; cited from earlier work.
For data set [2] the following is noted: ref Food Safety Commission of Japan; cited from earlier work.
Data set [3] relates to CYP2C. Put plainly: Hepatic microsomal TBH activity after oral administration for five days. The note with it: five consecutive days, P≤0.05.
In data set [4] the test system is CYP1A. Put plainly: Hepatic microsomal EROD activity after oral administration for five days. The note with it: five consecutive days, P≤0.05.
Data set [5] relates to CYP3A. The data set can be described thus: Hepatic microsomal MDZH activity after oral administration for five days. The note with it: five consecutive days, P≤0.05.
The next data set has as its system cytochrome P450. The note with it: five days; for Effect of oral treatment on total CYP content: decrease seen at high dose, P≤0.05; for Total cytochrome content, High dose / Total cytochrome content, Low dose: male SD rats, oral, mean ± SD (n=5); for Total cytochrome content, High dose: one-tenth of LD50; for Total cytochrome content, Low dose: one-thirtieth of LD50.

Data set [6] concerns CYP1A. The note with it: cited from earlier work.
The test system of data set [7] is CYP1A. The note with it: read-out: Km of ethoxyresorufin reported in rats; cited from earlier work.
Data set [8] deals with CYP3A. The note with it: read-out: Km of midazolam reported in rats; cited from earlier work.
Data set [9] deals with CYP2C. The note with it: read-out: Km of tolbutamide reported in rats; cited from earlier work.
The next data set relates to CYP2D6. Conditions: read-out: IC50 for CYP2D6; human microsomes; cited from earlier work.
Data set [10] deals with CYP2D. Put plainly: Hepatic microsomal BLH activity after oral administration for five days. The note with it: five consecutive days, P≤0.05.
Data set [11] relates to CYP2C. The data set can be described thus: Inhibition of tolbutamide hydroxylation. Conditions: at 1,000 µM. It counts as in vitro ADME, rat.
Data set [12] relates to CYP2D. Put plainly: Inhibition of bufuralol 1'-hydroxylation. It counts as in vitro ADME, rat. Conditions: at 1,000 µM.
The test system of data set [13] is CYP3A. The data set can be described thus: Inhibition of midazolam 4-hydroxylation. It counts as in vitro ADME, rat. The note with it: at 1,000 µM.
The test system of data set [14] is CYP2D. The note with it: read-out: Km of bufuralol reported in rats; cited from earlier work.

Marks after values point to notes of the source that are not given here.

With `CCCCSP(=O)(SCCCC)SCCCC` [tribufos, S,S,S-tri-n-butyl phosphorotrithioate], the “Increase of CYP content in hepatic microsomes” value with CYP was 2–3 fold.

`COP(=S)(OC)Oc1ccc([N+](=O)[O-])c(C)c1` [Fenitrothion, fenitrothion]: in the data set on CYP1A [1], the “Manner of EROD inhibition” value is listed as “noncompetitive” and the “Concentration that evidently inhibited EROD” value is “less than 1 µM”. Besides, in the data set on CYP1A1/2, the IC50 was roughly 3000 nM. In addition, the IC50 with CYP2B6 was 2500 nM. Also, the IC50 in the data set with CYP2C8 was 4.3 µM. The IC50 in the data set with CYP2C9 was 4.8 µM. Also, the “Acceptable daily intake (ADI)” value in data set [2] is given as 0.005 mg/kg/day. In the data set on CYP2C [3], the “Microsomal activity of TBH compared with control group” value is given as “significantly higher”. In the data set on CYP1A [4], the “Microsomal activity of EROD compared with control group” value is “significantly lower”. For the same compound, in the data set with CYP3A [5], the “Microsomal activity of MDZH compared with control group” value is given as “significantly lower”. Besides, in the data set with cytochrome P450, the “Effect of oral treatment on total CYP content” value (from here on “Effect of oral treatment”) is “not significantly affected”; the “Total cytochrome content, High dose” value turned out to be 1.18 ± 0.23 nM/mg protein; the “Total cytochrome content, Low dose” value turned out to be 1.38 ± 0.51 nM/mg protein.

On to `CCOC(=O)CC(SP(=S)(OC)OC)C(=O)OCC` (stereo not shown) [malathion], for which the IC50 in the data set on CYP2C9 is 2.5 µM.

As to `CC1(C)C(C=C(Cl)Cl)C1C(=O)OCc1cccc(Oc2ccccc2)c1` (stereo not shown) [permethrin], the “Effect on hepatic CYP1A” value in the data set with CYP1A [6] is given as “potent inhibitor of CYP1A”.

`CCCSP(=O)(OCC)Oc1ccc(Br)cc1Cl` (stereo not shown) [profenofos]: the IC50 with CYP1A1/2 is roughly 3000 nM.

On to `CCOc1ccc2nc3ccc(=O)cc-3oc2c1` [ethoxyresorufin], for which the Km in the data set with CYP1A [7] was 227 nM.

`Cc1ncc2n1-c1ccc(Cl)cc1C(c1ccccc1F)=NC2` [midazolam]: the Km in the data set on CYP3A [8] is 22 µM.

In the case of `CCCCNC(=O)NS(=O)(=O)c1ccc(C)cc1` [tolbutamide], the Michaelis-Menten constant (Km) in the data set with CYP2C [9] was 1.91 mM.

Turning to `CCOP(=S)(OCC)Oc1nc(Cl)c(Cl)cc1Cl` [Chlorpyrifos, chlorpyrifos], in the data set on CYP1A [1], the “Manner of EROD inhibition” value is “noncompetitive” and the “Concentration that evidently inhibited EROD” value is “less than 1 µM”. In addition, the IC50 in the data set with CYP1A1/2 is roughly 3000 nM. For the same compound, the IC50 in the data set with CYP2B6 was 2500 nM. Also, in the data set on CYP2D6, the IC50 was roughly 3000 nM. The “Acceptable daily intake (ADI)” value in data set [2] was 0.001 mg/kg/day. The “Microsomal activity of TBH compared with control group” value in the data set with CYP2C [3] is on record as “no significant effects”. In addition, the “Microsomal activity of BLH compared with control group” value in the data set on CYP2D [10] is “no significant effects”. In addition, in the data set on CYP1A [4], the “Microsomal activity of EROD compared with control group” value is given as “no significant effects”. The “Microsomal activity of MDZH compared with control group” value with CYP3A [5] is on record as “no significant effects”. In the data set on cytochrome P450, the “Effect of oral treatment” value is “significantly decreased”; the “Total cytochrome content, High dose” value is 1.30 ± 0.48^a) nM/mg protein; the “Total cytochrome content, Low dose” value is 1.69 ± 0.18 nM/mg protein.

`CCOC(=O)C(SP(=S)(OC)OC)c1ccccc1` (stereo not shown) [phenthoate]: the IC50 in the data set on CYP2D6 was roughly 3000 nM.

Turning to `CC1(C)C(C(=O)OC(C#N)c2cccc(Oc3ccccc3)c2)C1(C)C` (stereo not shown) [fenpropathrin], the “Effect on hepatic CYP1A” value in the data set with CYP1A [6] is listed as “potent inhibitor of CYP1A”.

With `COP(=O)(OC)OC=C(Cl)Cl` [Dichlorvos, dichlorvos], the “Inhibitory effect on TBH” value in the data set with CYP2C [11] was “not evident”. In addition, the “Inhibitory effect on BLH” value in the data set with CYP2D [12] is “not evident”. The “Inhibitory effect on MDZH” value in the data set with CYP3A [13] was “not evident”. Moreover, the “Microsomal activity of TBH compared with control group” value in the data set on CYP2C [3] was “no significant effects”. Also, the “Microsomal activity of BLH compared with control group” value with CYP2D [10] is “no significant effects”. In the data set with CYP1A [4], the “Microsomal activity of EROD compared with control group” value is “no significant effects”. Also, the “Microsomal activity of MDZH compared with control group” value in the data set with CYP3A [5] was “no significant effects”. Moreover, in the data set with cytochrome P450, the “Effect of oral treatment” value is given as “not significantly affected”; the “Total cytochrome content, High dose” value turned out to be 1.75 ± 0.18 nM/mg protein; the “Total cytochrome content, Low dose” value came out at 1.69 ± 0.40 nM/mg protein.

With `CCc1cccc2cc(C(O)CNC(C)(C)C)oc12` (stereo not shown) [bufuralol], the Michaelis-Menten constant (Km) in the data set on CYP2D [14] was 6.4 µM.
